Laboratory results from publication PMC10272112 (Nature Communications, 2023).
Values joined by “and” are separate entries in the source; they are usually repeats but may differ in a detail not shown here. Equal entries are not always repeated.

What was measured:
[1] = biological target: HDAC1 (Homo sapiens, UniProt Q13547); assay: HDAC-Glo assay; format: biochemical; set-up: purchased BPS Bioscience 50051; conditions: for EC50: read-out: log EC50 from dose-dependent HDAC inhibition curves (converted)
HDAC1, sequence (Q13547 whole entry): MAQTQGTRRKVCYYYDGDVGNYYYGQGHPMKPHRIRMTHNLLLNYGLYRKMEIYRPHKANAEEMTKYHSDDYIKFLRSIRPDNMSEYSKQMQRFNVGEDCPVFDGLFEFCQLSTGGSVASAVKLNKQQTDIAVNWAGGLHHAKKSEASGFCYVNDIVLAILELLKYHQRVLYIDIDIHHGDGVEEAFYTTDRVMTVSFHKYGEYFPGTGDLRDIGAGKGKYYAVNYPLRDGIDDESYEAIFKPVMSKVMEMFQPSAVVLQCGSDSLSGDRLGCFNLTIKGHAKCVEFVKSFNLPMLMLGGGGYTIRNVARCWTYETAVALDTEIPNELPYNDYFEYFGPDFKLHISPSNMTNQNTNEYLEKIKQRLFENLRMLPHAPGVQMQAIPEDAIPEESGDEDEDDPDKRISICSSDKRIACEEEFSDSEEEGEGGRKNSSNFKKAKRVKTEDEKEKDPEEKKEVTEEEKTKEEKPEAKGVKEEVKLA
Description: To validate the inhibition of HDACs by LA and LM and elaborate on the structure-activity relationship (SAR) of enantiomers as well as oxidized versus reduced forms of the molecules, we performed enzyme activity assays for recombinant HDAC1,2,3,6,8 as well as FRET-based binding assay for recombinant HDAC10.
The experiments were performed according to ref. [48]. […] Drug dosing was performed with a D300e Digital Dispenser (Tecan). HDACs (7 ng/mL for HDAC1, 25 ng/mL for HDAC2, 200 ng/mL for HDAC3/Ncor2 complex, 100 ng/mL for HDAC6, 200 ng/mL for HDAC8) and inhibitors were incubated together at room temperature (RT) for 30 min. After the addition of the HDAC-Glo™ I/II reagent, plates were shaken (800 rpm orbital shaker, 30 s), centrifuged (300 g, 1 min), and incubated at RT for 30 min. Luminescence was detected with a CLARIOstar (BMG Labtech) plate reader.

[2] = cited from earlier work
[3] = test system: A549 cells; assay: Arsenite-induced stress granule formation (G3BP1 immunofluorescence); format: cell-based; conditions: for arsenite-induced stress granule quantification (G3BP1), Mean / arsenite-induced stress granule quantification (G3BP1), Median / arsenite-induced stress granule quantification (G3BP1), individual values: sheet 4b; for arsenite-induced stress granule quantification (G3BP1), individual values: single data points
Description: The acetylation status of proteins can affect their macromolecular associations and the tendency of proteins to phase-separate into liquid condensates such as stress granules. […] After pre-incubation of cells with the compound, stress granule formation was induced using 30 min of arsenite treatment (1 mM). After treatment, cells were fixed for immunofluorescence detection of stress granules via the common stress granule marker protein G3BP1[21].
0.03 × 10^6 A549 cells were seeded at 4-chamber slides (Thermo, Nunc) and cultured at 37 °C overnight. Cells were treated with HDAC inhibitor SAHA and Lipoic acid or LM for 6 h, followed by 1 mM Arsenite for 30 min. Cells were fixed by 4% PFA and permeabilized by 0.5% Triton X-100/PBS. 10% Goat serum in PBS was used for blocking. After manually selecting an area with cell confluency of 50–80%, 16 pictures were taken randomly around the central point (ZEISS software in-built function). Stress granule marker G3BP1 (Aviva Systems Biology, ARP37713_T100) was visualized and quantified by ImageJ. Statistical analysis was performed with GraphPad Prism.

[4] = 0.5 M TCEP, log10 M -3.30103, 3 technical replicates
[5] = 0.5 M TCEP, log10 M -3.82945, 3 technical replicates
[6] = 0.5 M TCEP, log10 M -4.35788, 3 technical replicates
[7] = 0.5 M TCEP, log10 M -4.88629, 3 technical replicates
[8] = 0.5 M TCEP, log10 M -5.41477, 3 technical replicates
[9] = 0.5 M TCEP, log10 M -5.94309, 3 technical replicates
[10] = 0.5 M TCEP, log10 M -6.47756, 3 technical replicates
[11] = 0.5 M TCEP, log10 M -6.87615, 3 technical replicates

## O=C(O)CCCCC1CCSS1 (racemic) [(R/S)-LA, (R/S)-lipoic acid]
[1]; [4]
  HDAC enzymatic activity (normalized luminescence): 2.253 and 2.122 and 2.222
  raw luminescence signal, HDAC1 inhibition: 9033 and 8544 and 8916
[1]; [5]
  HDAC enzymatic activity (normalized luminescence): 6.603 and 6.6 and 6.7561
  raw luminescence signal, HDAC1 inhibition: 25221 and 25211 and 25792
[1]; [6]
  HDAC enzymatic activity (normalized luminescence): 20.3513 and 20.4988 and 20.2352
  raw luminescence signal, HDAC1 inhibition: 76389 and 76938 and 75957
[1]; [7]
  HDAC enzymatic activity (normalized luminescence): 44.8545 and 45.009 and 46.4019
  raw luminescence signal, HDAC1 inhibition: 167582 and 168157 and 173341
[1]; [8]
  HDAC enzymatic activity (normalized luminescence): 75.7737 and 78.1543 and 78.9575
  raw luminescence signal, HDAC1 inhibition: 282653 and 291513 and 294502
[1]; [9]
  HDAC enzymatic activity (normalized luminescence): 89.586 and 92.205 and 92.7553
  raw luminescence signal, HDAC1 inhibition: 334058 and 343805 and 345853
[1]; [10]
  HDAC enzymatic activity (normalized luminescence): 95.6344 and 96.1277 and 99.0353
  raw luminescence signal, HDAC1 inhibition: 356568 and 358404 and 369225
[1]; [11]
  HDAC enzymatic activity (normalized luminescence): 97.1294 and 100.284 and 101.314
  raw luminescence signal, HDAC1 inhibition: 362132 and 373872 and 377707
[1]; no TCEP, log10 M -3.30103, 3 technical replicates
  HDAC enzymatic activity (normalized luminescence): 34.5758 and 34.0329 and 33.4507
[1]; no TCEP, log10 M -3.82945, 3 technical replicates
  HDAC enzymatic activity (normalized luminescence): 69.9436 and 70.5688 and 71.7678
[1]; no TCEP, log10 M -4.35788, 3 technical replicates
  HDAC enzymatic activity (normalized luminescence): 91.6791 and 90.2694 and 91.9437
[1]; no TCEP, log10 M -4.88629, 3 technical replicates
  HDAC enzymatic activity (normalized luminescence): 97.2441 and 96.7873 and 98.245
[1]; no TCEP, log10 M -5.41477, 3 technical replicates
  HDAC enzymatic activity (normalized luminescence): 102.844 and 103.267 and 105.666
[1]; no TCEP, log10 M -5.94309, 3 technical replicates
  HDAC enzymatic activity (normalized luminescence): 103.58 and 104.044 and 104.328
[1]; no TCEP, log10 M -6.47756, 3 technical replicates
  HDAC enzymatic activity (normalized luminescence): 103.305 and 103.257 and 103.904
[1]; no TCEP, log10 M -6.87615, 3 technical replicates
  HDAC enzymatic activity (normalized luminescence): 102.627 and 100.722 and 100.875
[1]
  EC50: 11.4 µM
[1]; sheet S2b, log conc -3.30103
  HDAC1 relative activity: 1.283 and 1.298 and 1.278
[1]; sheet S2b, log conc -3.82945
  HDAC1 relative activity: 3.514 and 3.391 and 3.355
[1]; sheet S2b, log conc -4.35788
  HDAC1 relative activity: 11.0684 and 11.0093 and 10.6578
[1]; sheet S2b, log conc -4.88629
  HDAC1 relative activity: 24.6308 and 24.7045 and 25.3305
[1]; sheet S2b, log conc -5.41477
  HDAC1 relative activity: 53.4112 and 53.3483 and 54.8189
[1]; sheet S2b, log conc -5.94309
  HDAC1 relative activity: 78.0321 and 77.9262 and 78.089
[1]; sheet S2b, log conc -6.47756
  HDAC1 relative activity: 94.813 and 93.3015 and 93.5028
[1]; sheet S2b, log conc -6.87615
  HDAC1 relative activity: 93.4945 and 92.0736 and 92.8885
[1]; sheet S2d, log conc -3.30103
  HDAC1 relative activity: 2.253 and 2.122 and 2.222
[1]; sheet S2d, log conc -3.82945
  HDAC1 relative activity: 6.603 and 6.6 and 6.7561
[1]; sheet S2d, log conc -4.35788
  HDAC1 relative activity: 20.3513 and 20.4988 and 20.2352
[1]; sheet S2d, log conc -4.88629
  HDAC1 relative activity: 44.8545 and 45.009 and 46.4019
[1]; sheet S2d, log conc -5.41477
  HDAC1 relative activity: 75.7737 and 78.1543 and 78.9575
[1]; sheet S2d, log conc -5.94309
  HDAC1 relative activity: 89.586 and 92.205 and 92.7553
[1]; sheet S2d, log conc -6.47756
  HDAC1 relative activity: 95.6344 and 96.1277 and 99.0353
[1]; sheet S2d, log conc -6.87615
  HDAC1 relative activity: 97.1294 and 100.284 and 101.314
[2]; clinically relevant doses 600 to 2400 mg/day, orally and intravenously
  peak plasma concentrations: 100 to 500 µM
[2]; in humans
  peak plasma concentration: about 0.5 mM

## NC(=O)CCCCC1CCSS1 (racemic) [(R/S)-LM, (R/S)-lipoamide]
[1]; [4]
  raw luminescence signal, HDAC1 inhibition: 5424 and 5479 and 5403
[1]; [5]
  raw luminescence signal, HDAC1 inhibition: 13727 and 13267 and 13133
[1]; [6]
  raw luminescence signal, HDAC1 inhibition: 41841 and 41621 and 40313
[1]; [7]
  raw luminescence signal, HDAC1 inhibition: 92316 and 92590 and 94920
[1]; [8]
  raw luminescence signal, HDAC1 inhibition: 199427 and 199193 and 204666
[1]; [9]
  raw luminescence signal, HDAC1 inhibition: 291058 and 290664 and 291270
[1]; [10]
  raw luminescence signal, HDAC1 inhibition: 353511 and 347886 and 348635
[1]; [11]
  raw luminescence signal, HDAC1 inhibition: 348604 and 343316 and 346349
[1]
  EC50: 4.62 µM
[1]; sheet S2b, log conc -3.30103
  HDAC1 relative activity: 71.5662 and 71.4067 and 71.4672
[1]; sheet S2b, log conc -3.82945
  HDAC1 relative activity: 85.3568 and 84.4089 and 84.9362
[1]; sheet S2b, log conc -4.35788
  HDAC1 relative activity: 99.571 and 98.7787 and 97.4651
[1]; sheet S2b, log conc -4.88629
  HDAC1 relative activity: 94.8867 and 95.3188 and 94.2715
[1]; sheet S2b, log conc -5.41477
  HDAC1 relative activity: 102.996 and 104.783 and 104.694
[1]; sheet S2b, log conc -5.94309
  HDAC1 relative activity: 100.727 and 101.673 and 102.371
[1]; sheet S2b, log conc -6.47756
  HDAC1 relative activity: 104.216 and 103.707 and 104.551
[1]; sheet S2b, log conc -6.87615
  HDAC1 relative activity: 97.8849 and 97.6343 and 99.4595
[3]; LM 100 uM
  arsenite-induced stress granule quantification (G3BP1), Mean: 50.8573
  arsenite-induced stress granule quantification (G3BP1), Median: 45.1
  arsenite-induced stress granule quantification (G3BP1), individual values: 71 and 31.1875 and 45 and 63.6 and 40.5 and 81.5 and 35.3333 and 36 and 53.7143 and 35.8571 and 38.125 and 41.75 and 45.1 and 52.8 and 44.3 and 63.75 and 64.7778 and 49.1818 and 58.6 and 39.7273 and 76.2
[3]; LM 300 uM
  arsenite-induced stress granule quantification (G3BP1), Mean: 32.0457
  arsenite-induced stress granule quantification (G3BP1), Median: 30.3222
  arsenite-induced stress granule quantification (G3BP1), individual values: 24.4375 and 30.6667 and 27.6923 and 44.9286 and 34.8 and 39.0909 and 43.75 and 27.5454 and 17.65 and 28.1111 and 42.3 and 13.75 and 29.6842 and 28.3684 and 12.875 and 35.8333 and 25.5 and 35.3077 and 30.4444 and 43.6667 and 30.2 and 36.2308 and 27.3889 and 58.875
[3]; LM 1000 uM
  arsenite-induced stress granule quantification (G3BP1), Mean: 21.5611
  arsenite-induced stress granule quantification (G3BP1), Median: 21.7363
  arsenite-induced stress granule quantification (G3BP1), individual values: 28.8889 and 25.875 and 20.6667 and 21.6154 and 30.8182 and 26.2857 and 7.556 and 13.9375 and 25.5714 and 28 and 21.25 and 20 and 16.75 and 17 and 9.615 and 15.3 and 22.6191 and 29.6154 and 21.8571
[3]; pre-incubation 6 h, then 1 mM arsenite 30 min
  effect on stress granule numbers per cell: dose-dependent reduction of stress granule numbers per cell
